Where two headings read alike, the source gives them in different places.
How the values were obtained:
Type in all cases: in vitro ADME
[1] = molecular target: T1, CYP2D6 (Homo sapiens, UniProt P10635); test: Cytochrome P450 inhibition, CYP2D6; conditions: Supersomes; read-out: IC50 (μM) 2D6
T1 construct: purchased BD Gentest, Becton-Dickinson (Supersomes); host or cells: insect cells (microsomes)
Text: (§1) F. Assay for Cytochrome P450 Inhibition
(§2) Cytochrome P450 enzymes are implicated in the phase I metabolism of drugs. The majority of drug-drug interactions are metabolism-based and, moreover, these interactions typically involve inhibition of cytochrome P450s. Six CYP450 enzymes (CYP1A2, CYP2C8, CYP2C9, CYP2C19, CYP2D6 and CYP3A4) appear to be commonly responsible for the metabolism of most drugs and the associated drug-drug interactions. Assays to determine the binding of compounds of the invention to the various metabolically important isoforms of cytochrome P450 metabolizing enzymes are commercially available, for example NoAb BioDiscoveries (Mississaugua, ON, Canada) and Absorption Systems (Exton, Pa., USA). As well, a number of appropriate methods have been described or reviewed in the literature. (White, R. E. Ann. Rev. Pharmacol. Toxicol. 2000, 40, 133-157; Li, A. P. Drug. Disc. Today 2001, 6, 357-366; Turpeinen, M.; Korhonen, L. E. Tolonen, A.; et al. Eur. J. Pharm. Sci. 2006, 29, 130-138.)
(§3) The concentration of the inhibitor or test compound that inhibited metabolite formation by 50% (IC50) was calculated by non-linear regression analysis of the % inhibition vs. log concentration (M) curve.

[2] = molecular target: T2, CYP3A4 (Homo sapiens, UniProt P08684); test: Cytochrome P450 inhibition, CYP3A4; conditions: Supersomes
T2 construct: purchased BD Gentest, Becton-Dickinson (Supersomes); host or cells: insect cells (microsomes)
T2 sequence (P08684 whole entry): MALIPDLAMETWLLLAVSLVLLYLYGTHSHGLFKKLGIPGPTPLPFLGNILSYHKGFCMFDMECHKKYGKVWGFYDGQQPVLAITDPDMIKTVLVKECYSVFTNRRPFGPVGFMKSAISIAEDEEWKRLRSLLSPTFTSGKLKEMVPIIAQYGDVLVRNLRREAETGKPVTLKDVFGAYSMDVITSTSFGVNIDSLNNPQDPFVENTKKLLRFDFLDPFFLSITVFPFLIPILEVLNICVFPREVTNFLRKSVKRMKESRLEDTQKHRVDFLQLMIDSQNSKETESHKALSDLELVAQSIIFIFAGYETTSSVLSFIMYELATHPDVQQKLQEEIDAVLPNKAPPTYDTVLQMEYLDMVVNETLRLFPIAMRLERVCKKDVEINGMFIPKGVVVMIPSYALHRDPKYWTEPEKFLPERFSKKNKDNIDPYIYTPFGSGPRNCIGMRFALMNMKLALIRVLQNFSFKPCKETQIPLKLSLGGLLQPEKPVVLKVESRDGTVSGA
Text: as §1, §2, §3

[3] = molecular target: T3, CYP2C8 (Homo sapiens, UniProt P10632); test: Cytochrome P450 inhibition, CYP2C8; conditions: Supersomes; read-out: IC50 (μM) 2C8
T3 construct: purchased BD Gentest, Becton-Dickinson (Supersomes); host or cells: insect cells (microsomes)
T3 sequence (P10632 1-490): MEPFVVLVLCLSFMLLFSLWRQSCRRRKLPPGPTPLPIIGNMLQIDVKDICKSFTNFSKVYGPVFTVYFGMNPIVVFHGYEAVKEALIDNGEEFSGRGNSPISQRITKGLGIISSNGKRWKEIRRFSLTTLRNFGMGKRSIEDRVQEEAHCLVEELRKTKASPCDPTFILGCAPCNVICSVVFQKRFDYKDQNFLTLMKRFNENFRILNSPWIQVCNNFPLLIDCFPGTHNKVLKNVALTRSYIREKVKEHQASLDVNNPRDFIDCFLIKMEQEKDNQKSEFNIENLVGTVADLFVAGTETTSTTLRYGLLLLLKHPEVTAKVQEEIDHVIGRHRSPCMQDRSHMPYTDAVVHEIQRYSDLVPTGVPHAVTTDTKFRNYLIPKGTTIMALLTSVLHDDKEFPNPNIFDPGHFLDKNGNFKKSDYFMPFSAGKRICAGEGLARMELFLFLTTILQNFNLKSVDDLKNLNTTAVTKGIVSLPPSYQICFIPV
Text: as §1, §2, §3

[4] = molecular target: T4, CYP2B6 (Homo sapiens, UniProt P20813); test: Cytochrome P450 inhibition, CYP2B6; conditions: Supersomes; read-out: IC50 (μM) 2B6
T4 construct: purchased BD Gentest, Becton-Dickinson (Supersomes); host or cells: insect cells (microsomes)
T4 sequence (P20813 1-491): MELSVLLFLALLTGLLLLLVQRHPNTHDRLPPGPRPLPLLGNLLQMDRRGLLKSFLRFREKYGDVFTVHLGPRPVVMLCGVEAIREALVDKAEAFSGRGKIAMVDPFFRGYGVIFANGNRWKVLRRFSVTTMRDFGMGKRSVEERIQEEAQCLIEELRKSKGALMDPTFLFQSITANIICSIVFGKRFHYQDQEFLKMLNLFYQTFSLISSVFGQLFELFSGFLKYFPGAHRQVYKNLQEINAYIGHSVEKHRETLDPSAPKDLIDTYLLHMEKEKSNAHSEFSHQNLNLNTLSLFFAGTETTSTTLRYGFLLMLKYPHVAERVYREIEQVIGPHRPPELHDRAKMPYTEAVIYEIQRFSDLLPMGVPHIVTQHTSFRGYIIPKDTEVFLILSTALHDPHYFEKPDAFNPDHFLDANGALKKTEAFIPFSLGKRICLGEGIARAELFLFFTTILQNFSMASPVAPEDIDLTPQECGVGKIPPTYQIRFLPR
Text: as §1, §2, §3

[5] = molecular target: T5, CYP1A2 (Homo sapiens, UniProt P05177); test: Cytochrome P450 inhibition, CYP1A2; conditions: Supersomes; read-out: IC50 (μM) 1A2
T5 construct: purchased BD Gentest, Becton-Dickinson (Supersomes); host or cells: insect cells (microsomes)
T5 sequence (P05177 1-516): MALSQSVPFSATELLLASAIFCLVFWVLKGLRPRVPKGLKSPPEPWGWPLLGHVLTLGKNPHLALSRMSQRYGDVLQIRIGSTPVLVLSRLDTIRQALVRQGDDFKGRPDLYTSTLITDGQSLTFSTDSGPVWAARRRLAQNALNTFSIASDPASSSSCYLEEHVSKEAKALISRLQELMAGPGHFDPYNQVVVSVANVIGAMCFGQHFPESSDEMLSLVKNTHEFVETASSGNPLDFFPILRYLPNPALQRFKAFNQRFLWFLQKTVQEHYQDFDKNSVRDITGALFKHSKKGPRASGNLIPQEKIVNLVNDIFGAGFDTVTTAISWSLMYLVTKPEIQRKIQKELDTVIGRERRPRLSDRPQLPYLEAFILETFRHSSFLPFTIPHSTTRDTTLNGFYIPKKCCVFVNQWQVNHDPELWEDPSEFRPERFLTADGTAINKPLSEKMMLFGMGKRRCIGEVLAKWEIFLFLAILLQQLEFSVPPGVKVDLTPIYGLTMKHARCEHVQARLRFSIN
Text: as §1, §2, §3

[6] = substrate BFC, read-out: IC50 (μM) 3A4 (BFC)
[7] = substrate BQ, read-out: IC50 (μM) 3A4 (BQ)

T1 sequence (P10635 whole entry): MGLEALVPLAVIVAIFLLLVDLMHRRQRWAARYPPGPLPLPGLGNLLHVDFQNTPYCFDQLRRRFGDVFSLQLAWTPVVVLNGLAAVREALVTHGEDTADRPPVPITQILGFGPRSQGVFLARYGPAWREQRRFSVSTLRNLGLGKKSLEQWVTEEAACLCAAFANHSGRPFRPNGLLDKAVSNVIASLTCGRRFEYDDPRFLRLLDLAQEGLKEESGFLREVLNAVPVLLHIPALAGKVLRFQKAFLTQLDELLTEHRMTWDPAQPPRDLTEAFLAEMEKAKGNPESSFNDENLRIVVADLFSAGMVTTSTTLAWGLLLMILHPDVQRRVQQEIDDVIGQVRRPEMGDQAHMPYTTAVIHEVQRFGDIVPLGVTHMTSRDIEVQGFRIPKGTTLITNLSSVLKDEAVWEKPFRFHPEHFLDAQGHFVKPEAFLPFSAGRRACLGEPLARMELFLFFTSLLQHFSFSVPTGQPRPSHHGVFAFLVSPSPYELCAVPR

## CCC[C@@H]1NC(=O)[C@@H](C(C)C)NC(=O)[C@@H](Cc2cccc(F)c2)N[C@@H](C)COc2ccccc2CCCNC1=O [Compound 551]
[1]
  IC50: 30.1 µM
[2]; [6]
  IC50: 2.37 µM
[2]; [7]
  IC50: 10.4 µM
[3]
  IC50: > 100 µM
[4]
  IC50: > 100 µM
[5]
  IC50: > 100 µM

## CCC[C@@H]1NC(=O)[C@@H](C(C)C)NC(=O)[C@@H](Cc2ccc(O)c(C(C)(C)C)c2)NCCOc2ccccc2CCCNC1=O [Compound 553]
[1]
  IC50: 80.8 µM
[2]; [6]
  IC50: 0.0192 µM
[2]; [7]
  IC50: 3.48 µM
[3]
  IC50: > 100 µM
[4]
  IC50: > 100 µM
[5]
  IC50: > 100 µM
